# Measured values from paper PMC7407272, “Induction of Lysosome Membrane Permeabilization as a Therapeutic Strategy to Target Pancreatic Cancer Stem Cells” (Cancers, 2020).
# Legend:
# [1] = test system: mouse embryonic stem cells (mESCs); assay: mESC viability (MTS) screen and dose response; assay type: cell-based; settings: Mus musculus, Embryonic stem cell, 30 h
# Protocol: (§1) Mouse embryonic stem cells were cultured in Dulbecco’s Modified Eagle Medium (DMEM) containing 15% Fetal bovine serum (FBS), non-essential amino acids (NEAA), 2-mercaptoethanol, and Leukemia inhibitory factor (LIF) and passaged on gelatinized plates under standard conditions.
# (§2) Murine embryonic stem cells (mESCs) were plated at 20,000 cells per well in gelatinized 96 well plates. Compounds from the 640 compound ETP library were added by a Beckman FX 96 tip to achieve a final concentration of 5 µM in each well, and each compound was tested in duplicate. Cells were treated for a total of 30 h prior to assessing cell viability using CellTiter 96® AQueous One Solution Cell Proliferation Assay (MTS) assay according to manufacturer’s instructions (G3582, Promega, Madison, WI, USA). Dose response curves were carried out on mESCs under the same conditions using indicated compounds. To test the viability of CSCs, 10,000 PDAC cells were plated in spheroid conditions and immediately treated with indicated compounds and concentrations for the duration of the sphere formation assay. For adherent non-CSCs, 20,000 cells were plated in wells of standard tissue culture-treated plates (Corning, Corning, NY, USA) and treated the following day with indicated compounds and concentrations. For re-plated spheres (Figure S1B), 7-day-old spheres were filtered using a 40 µM filter (Fisher Scientific, Hampton, NH, USA), washed once with 1× PBS, and incubated with trypsin 0.05% EDTA at 37 °C (Thermo Fisher Scientific, Waltham, MA, USA) to achieve a single cell suspension (approximately 10–30 min, depending on the PDAC culture). Trypsinized cells were counted and 20,000 cells were plated in wells of standard tissue culture-treated plates (Corning) and treated the following day with indicated compounds and concentrations.
# [2] = mESC viability (MTS) screen and dose response; assay type: cell-based, mouse; settings: mouse, mouse embryonic stem cells (mESCs), 5 µM, MTS
# Protocol: as §1, §2
# [3] = test system: PDAC2 cultures; assay: Sphere formation assay; assay type: cell-based, human; settings: 0.1 µg/mL GEM or Cpd 1 at 1.25 or 2.5 µM
# Excerpt: (§3) Pancreatic CSC spheres were generated as previously described in ultra-low attachment plates (Corning) using CSC media: serum-free DMEM/F12 medium (1:1; #21331-020; Gibco, Waltham, MA, USA), supplemented with Pen/Strep (1:100; #1500-063; Gibco, Waltham, MA, USA), Fungizone (1:250; #15290-018; Gibco), L-Glutamine (1:100; #25030-024; Gibco, Waltham, MA, USA), B-27 (1:50; #17504-044; Gibco, Waltham, MA, USA) and basic fibroblast growth factor (FGF-b) (1:5000; Gibco, Waltham, MA, USA). All cell culture was carried out at 37 °C in a 5% CO2 humidified incubator. To quantify spheres of > 40 μm, 1 mL of sample volume was analyzed with a CASY® Cell Counter (Roche Applied Sciences, Mannheim, Germany). The CASY® Cell Counter measuring principle is based on a capillary particle counter with pulse area analysis, that permits the determination of cell count, cell concentration, cell volume (peak), and average cell diameter, specifically diameters of 40–80 μm, 80–120 μm and >120 μm.
# [4] = test system: PDAC4 cultures; assay: Sphere formation assay; assay type: cell-based, human; settings: 0.1 µg/mL GEM or Cpd 1 at 1.25 or 2.5 µM
# Excerpt: as §3
# [5] = test system: sphere-derived PDAC2 cells; assay: Tumor initiating capacity of pre-treated cells injected subcutaneously; assay type: in vivo, NU-Foxn1nu nude mice; settings: cells treated 3 days with 0.1 µg/mL GEM or compound at 1.25 µM, then injected subcutaneously
# Protocol: (§4) Female 6- to 8-week-old NU-Foxn1nu nude mice (Envigo, Spain) were subcutaneously injected with control or pre-treated 1 × 10^4 PDAC cells in 50 µL of Matrigel^TM (Corning). Tumor growth was monitored bi-weekly for up to 10 weeks. For Siramesine experiments, mice were subcutaneously implanted with PDAC1 and PDAC3 PDXs. After 4 weeks of tumor growth, mice were randomized into treatment groups (5 mice per group). Mice were treated with Siramesine twice a week (30 mg/kg by oral gavage formulated in 0.5% methylcellulose 15 cP in 0.9% NaCl solution) for ~4 weeks. Gemcitabine (GEMZAR®, Eli Lilly, Indianapolis, IN, USA) was administered twice a week (125 mg/kg i.p.) for ~4 weeks. Tumor volumes (mm^3) were determined twice per week using a digital caliper. Mice were sacrificed at 24 days post treatment initiation and tumors were extracted and analyzed by flow cytometry as described above. For second generation tumor formation, 1000 and 100 cells of indicated treatment groups were resuspended in Matrigel ^TM and injected subcutaneously in recipient NU-Foxn1nu nude mice and tumor formation was monitored for 10 weeks. Mice were housed according to institutional guidelines and all experiments were performed in compliance with the institutional guidelines for the welfare of experimental animals approved by the Universidad Autónoma de Madrid Ethics Committee (CEI 60-1057-A068) or by the Instituto de Salud Carlos III Ethics Committee (CBA12_2014-v3) and La Comunidad de Madrid (PROEX 335/14 or PROEX 53/14) and in accordance with the guidelines for Ethical Conduct in the Care and Use of Animals as stated in The International Guiding Principles for Biomedical Research involving Animals, developed by the Council for International Organizations of Medical Sciences (CIOMS).
# [6] = test system: PDAC3 xenografts; assay: PDX treatment in nude mice; assay type: in vivo, NU-Foxn1nu nude mice; settings: PDAC3 PDX; GEM 125 mg/kg i.p. biweekly, SIR 30 mg/kg oral gavage; 23 days
# Protocol: (§5) Cells were analyzed with a 4-laser Attune NxT Acoustic Cytometer (ThermoFisher Scientific). Cells and digested tumors (as described in [41]) were resuspended in FLOW buffer (1X PBS; 3 mM EDTA (v/v); 3% FBS (v/v)), and the following fluorescently-tagged antibodies were used to label cells for 30 min at 4 °C: Mouse monoclonal anti-human CD133-PE (1:20, Cat no. 130-110-962, Miltenyi, Bergisch Gladbach, Germany), Mouse monoclonal anti-human CD133-APC (1:20, Cat no. 130-111-080, Miltenyi, Bergisch Gladbach, Germany), mouse monoclonal anti-human C-X-C chemokine receptor type 4- Phycoerythrin (CXCR4-PE) (1:20, Cat no. 130-117-354, Miltenyi, Bergisch Gladbach, Germany), or mouse monoclonal anti-human Epithelial cell adhesion molecule-fluorescein isothiocyanate (EpCAM-FITC) (1:20, Cat no. 130-111-115, Miltenyi, Bergisch Gladbach, Germany). Autofluorescent cells were excited with blue laser 488nm and selected as the intersection with the filters 530/40 and 580/30 as previously described. For lysosomes quantification, Acridine Orange (AO) (A1301, Thermo Fisher Scientific, Waltham, MA, USA) or Lysotracker Deep Red (DR) (L12492, Molecular probes, Life Technologies, Waltham, MA, USA) were used. AO fluorescence was assessed with two combinations of excitation and emission spectra: BL1 […] BL3 (Ex488/Em695/40, equal to the far-red channel (>670 nm)) Lysotracker DR fluorescence was assessed with RL1 (Ex638/Em670/14). Bafilomycin A1 (100 nM, Calbiochem, San Diego, CA, USA) was included as a positive control for lysosome disruption. For Annexin V staining, floating and attached cells were pooled and resuspended in 1× AnnexinV staining buffer containing AnnexinV-APC diluted 1:20 (Biotium, Freemont, CA, USA) and incubated for 20 min at room temperature prior to flow cytometric analysis. For all assays, DAPI was used to mark and exclude dead cells, and data were analyzed using the software FlowJo v9.3 (Tree Star Inc., Ashland, OR, USA).
# as §4
# [7] = test system: PDAC1 xenografts; assay: PDX treatment in nude mice; assay type: in vivo, NU-Foxn1nu nude mice
# Protocol: as §5, §4
# [8] = test system: PDAC3 tumor cells; assay: Second generation tumor formation (serial passage, ELDA); assay type: in vivo, NU-Foxn1nu nude mice
# Protocol: as §4
# (§6) Results are presented as means ± standard error of the mean (SEM) unless stated otherwise. An unpaired two-tailed t test was performed to determine significance. p values < 0.05 were considered statistically significant. All analyses were performed using GraphPad Prism version 6.0 (San Diego, California USA). CSC frequencies and significance were determined using the on-line extreme-limiting dilution assays (ELDA) program (http://bioinf.wehi.edu.au/software/elda/).
# [9] = test system: PDAC1 tumor cells; assay: as above; assay type: in vivo, NU-Foxn1nu nude mice
# Protocol: as §4, §6
# [10] = test system: PDAC2 3D spheres; assay: Viability curves on PDAC2 3D spheres; assay type: cell-based, human; settings: Homo sapiens, PDAC-2, 30 h; read-out: EC50 (viability), PDAC2 spheres
# Excerpt: (§7) The PDAC patient-derived xenograft (PDX) Panc354 (referred to hereafter as PDAC3) was obtained from Dr. Manuel Hidalgo under a Material Transfer Agreement with the Spanish National Cancer Centre (CNIO), Madrid, Spain (Reference no. I409181220BSMH). PDAC1, PDAC2 and PDAC4 PDXs were established from primary patient resected tumors. Samples were provided by the BioBank Hospital Ramón y Cajal-IRYCIS (PT13/0010/0002), integrated in the Spanish National Biobanks Network and they were processed following standard operating procedures with the appropriate approval of the Ethical and Scientific Committees (Control no. No. Control: DE-BIOB-73 AC65, RG.BIOB-96 REV, and CI-BIOB-08-10-01 rev), with informed consent and according to Declaration of Helsinki principles. Primary patient tumors were subcutaneously implanted in immunocompromised female 6- to 8-week-old NU-Foxn1nu nude mice (Envigo, Barcelona, Spain) and subsequently passage in vivo to establish PDX PDAC1, PDAC2 and PDAC4. Primary PDX-derived in vitro cultures were established as previously detailed. Briefly, xenografts were minced, enzymatically digested with collagenase (Stem Cell Technologies) for 60 min at 37 °C and after centrifugation for 5 min at 1800 rpm, the cell pellets were resuspended and cultured in RPMI (1:1; #61870-010; Gibco, Waltham, MA, USA) supplemented with 10% FBS (Invitrogen, Waltham, MA, USA), Pen/Strep (1:100; #1500-063; Gibco, Waltham, MA, USA), and Fungizone (1:250; #15290-018; Gibco, Waltham, MA, USA). Primary cultures were tested for Mycoplasma at least every 4 weeks.
# as §3
# Murine embryonic stem cells (mESCs) were plated at 20,000 cells per well in gelatinized 96 well plates. Compounds from the 640 compound ETP library were added by a Beckman FX 96 tip to achieve a final concentration of 5 µM in each well, and each compound was tested in duplicate. Cells were treated for a total of 30 h prior to assessing cell viability using CellTiter 96® AQueous One Solution Cell Proliferation Assay (MTS) assay according to manufacturer’s instructions (G3582, Promega, Madison, WI, USA). Dose response curves were carried out on mESCs under the same conditions using indicated compounds. To test the viability of CSCs, 10,000 PDAC cells were plated in spheroid conditions and immediately treated with indicated compounds and concentrations for the duration of the sphere formation assay. […]
# [11] = test system: PDAC4 3D spheres; assay: Viability curves on PDAC4 3D spheres; assay type: cell-based, human; settings: 30 h
# Excerpt: as §7, with “Briefly, xenografts were minced, enzymatically digested with collagenase (Stem Cell Technologies) for 60 min at 37 °C and after centrifugation for 5 min at 1800 rpm, the cell pellets were resuspended and cultured in RPMI (1:1; #61870-010; Gibco, Waltham, MA, USA) supplemented with 10% FBS (Invitrogen, Waltham, MA, USA), Pen/Strep (1:100; #1500-063; Gibco, Waltham, MA, USA), and Fungizone (1:250; #15290-018; Gibco, Waltham, MA, USA). Primary cultures were tested for Mycoplasma at least every 4 weeks.” left out
# Pancreatic CSC spheres were generated as previously described in ultra-low attachment plates (Corning) using CSC media: serum-free DMEM/F12 medium (1:1; #21331-020; Gibco, Waltham, MA, USA), supplemented with Pen/Strep (1:100; #1500-063; Gibco, Waltham, MA, USA), Fungizone (1:250; #15290-018; Gibco), L-Glutamine (1:100; #25030-024; Gibco, Waltham, MA, USA), B-27 (1:50; #17504-044; Gibco, Waltham, MA, USA) and basic fibroblast growth factor (FGF-b) (1:5000; Gibco, Waltham, MA, USA). […] To quantify spheres of > 40 μm, 1 mL of sample volume was analyzed with a CASY® Cell Counter (Roche Applied Sciences, Mannheim, Germany). […]
smiles,measurement,setting,value
O=C(Nc1cccc(OC(F)(F)F)c1)c1cnc2ccc(N3CCCC4(CCNCC4)C3)nn12 [Cpd 3],EC50,[1],1.5 µM
same,"viability at 30 h, 5 µM",[2],9%
Nc1ccn([C@@H]2O[C@H](CO)[C@@H](O)C2(F)F)c(=O)n1 [gemcitabine],sphere-forming capacity,[3],did not affect sphere formation
same,sphere-forming capacity,[4],increased
same,tumor formation / growth from pre-treated cells,[5],gave rise to larger tumors
same,tumor volume versus control,[6],significantly reduced
same,tumor volume versus control,"[7]; PDAC1 PDX, GEM 125 mg/kg i.p. biweekly, SIR 30 mg/kg oral gavage, 23 days",significantly reduced
same,autofluorescent-positive cells in tumors,"[7]; PDAC1 tumors, day 23, flow cytometry",marked increase
same,CSC freq,"[8]; PDAC3, Extreme Limiting Dilution Analysis, listed as GEM",1/102
same,Tumors/n (2nd generation),"[8]; PDAC3, no. cells 10^2",5/8
same,Tumors/n (2nd generation),"[8]; PDAC3, no. cells 10^3",8/8
same,CSC freq,"[9]; PDAC1, Extreme Limiting Dilution Analysis, listed as GEM",1/272
same,Tumors/n (2nd generation),"[9]; PDAC1, no. cells 10^2",5/8
same,Tumors/n (2nd generation),"[9]; PDAC1, no. cells 10^3",7/8
"OC(c1cc(C(F)(F)F)nc2c(C(F)(F)F)cccc12)C1CCCCN1 (centres unmarked) [mefloquine, reference compound]",EC50,[10],7.6 µM
"C#CCCC1(CC(=O)N2CCC(CNc3ccc4ncc(C(=O)Nc5cccc(OC(F)(F)F)c5)n4n3)CC2)N=N1 [Cpd 26, 6-({1-[2-(3-But-3-ynyl-3H-diazirin-3-yl)-acetyl]-piperidin-4-ylmethyl}-amino)-imidazo[1,2-b]pyridazine-3-carboxylic acid (3-trifluoromethoxy-phenyl)-amide]",effect on PDAC4 CSC viability,[11],inactive
"C#CCCC1(CCN2CCC(CNc3ccc4ncc(C(=O)Nc5cccc(OC(F)(F)F)c5)n4n3)CC2)N=N1 [Cpd 25, 6-({1-[2-(3-But-3-ynyl-3H-diazirin-3-yl)-ethyl]-piperidin-4-ylmethyl}-amino)-imidazo [1,2-b]pyridazine-3-carboxylic acid (3-trifluoromethoxy-phenyl)-amide]",EC50,[11]; Homo sapiens,2.62 µM
